# Experimental data: publication PMC6100082, “Pyridine-Ureas as Potential Anticancer Agents: Synthesis and In Vitro Biological Evaluation” (Molecules : A Journal of Synthetic Chemistry and Natural …, 2018)
# Where two headings read alike, the source gives them in different places.
# Key:
# Format in all cases: cell-based, human
# [1] = system: breast cancer MCF-7 cell line; assay: In vitro anti-proliferative activity, MTT assay; settings: Homo sapiens, MCF-7, MTT
# Protocol: The in vitro anti-proliferative activity of the newly prepared pyridine-ureas 8a–n was examined against breast cancer MCF-7 cell line. The assay was carried out, as triplicates, utilizing the 3-(4,5-dimethylthiazol-2-yl)-2,5-diphenyltetrazolium bromide (MTT) colorimetric assay as described by T. Mosmann. Doxorubicin and Sorafenib were included in this assay as a reference drug.
# MCF-7 (human breast cancer cell line) and WI-38 (human lung fibroblast cell line), were obtained from American Type Culture Collection (Manassas, VA, USA). The cells were propagated in DMEM and supplemented with 10% heat-inactivated FBS (Hyclone), 10 μg/mL of insulin (Manufacturer, Sigma, St. Louis, MO, USA), and 1% penicillin-streptomycin. MTT assay was utilized to examine the in vitro anti-proliferative activity of the newly prepared ureas following the reported procedures. […] The data presented are the mean of at least three separate experiments.
# SN12C = assay: NCI one-dose SRB assay (Renal Cancer); settings: for Growth Percent: 1.00E-5 Molar; for inhibition at 10 µM: Homo sapiens, read-out: Percentage growth inhibition (GI%)
# Protocol: (§1) The structures of all the newly prepared pyridine-ureas 8a–n were submitted to the National Cancer Institute (NCI) Developmental Therapeutic Program. Eight compounds 8b, 8d, 8e, 8i, 8j and 8l–n were selected to be examined for their in vitro growth inhibitory activity. The anticancer assays were carried out according to the protocol of the Drug Evaluation Branch, NCI, Bethesda. The selected pyridine-ureas were tested at one dose primary anticancer assay against a panel of approximately 58 cancer lines (concentration 10^−5 M). The tested human cancer cell lines emerged from nine different cancer subtypes: leukemia, colon, melanoma, ovarian, lung, CNS, renal, breast and prostate cancers. The sulforhodamine B (SRB) protein assay was adopted to estimate the cell viability and growth. The results were reported as mean-graph of the percentage growth of the treated cells, and presented as percentage growth inhibition (GI%) caused by the test compounds (Table 2).
# (§2) The anticancer assays were performed in accordance with the protocol of the Drug Evaluation Branch, NCI, Bethesda. A 48 h drug exposure protocol was used and sulforhodamine B (SRB) protein assay was applied to estimate the cell viability and growth, as reported earlier.
# 786-0 = assay: NCI one-dose SRB assay (Renal Cancer); settings: for Growth Percent: 786-0, 1.00E-5 Molar; for inhibition at 10 µM: Homo sapiens, 786-0, 10 μM, read-out: Percentage growth inhibition (GI%)
# Protocol: as §1, §2
# A498 = assay: NCI one-dose SRB assay (Renal Cancer); settings: for Growth Percent: A498, 1.00E-5 Molar; for inhibition at 10 µM: Homo sapiens, A498, 10 μM, read-out: Percentage growth inhibition (GI%)
# Protocol: as §1, §2
# TK-10 = assay: NCI one-dose SRB assay (Renal Cancer); settings: for inhibition at 10 µM: Homo sapiens, TK-10, 10 μM, read-out: Percentage growth inhibition (GI%); for Growth Percent: TK-10, 1.00E-5 Molar
# Protocol: as §1, §2
# UO-31 = assay: NCI one-dose SRB assay (Renal Cancer); settings: for inhibition at 10 µM: Homo sapiens, UO-31, 10 μM, read-out: Percentage growth inhibition (GI%); for Growth Percent: UO-31, 1.00E-5 Molar
# Protocol: as §1, §2
# RXF 393 = assay: NCI one-dose SRB assay (Renal Cancer); settings: for inhibition at 10 µM: Homo sapiens, RXF 393, 10 μM, read-out: Percentage growth inhibition (GI%); for Growth Percent: RXF 393, 1.00E-5 Molar
# Protocol: as §1, §2
# SK-MEL-2 = assay: NCI one-dose SRB assay (Melanoma); settings: for inhibition at 10 µM: Homo sapiens, SK-MEL-2, 10 μM, read-out: Percentage growth inhibition (GI%); for Growth Percent: SK-MEL-2, 1.00E-5 Molar
# Protocol: as §1, §2
# UACC-257 = assay: NCI one-dose SRB assay (Melanoma); settings: for inhibition at 10 µM: Homo sapiens, UACC-257, 10 μM, read-out: Percentage growth inhibition (GI%); for Growth Percent: UACC-257, 1.00E-5 Molar
# Protocol: as §1, §2
# MDA-MB-435 = assay: NCI one-dose SRB assay (Melanoma); settings: for inhibition at 10 µM: Homo sapiens, MDA-MB-435, 10 μM, read-out: Percentage growth inhibition (GI%); for Growth Percent: MDA-MB-435, 1.00E-5 Molar
# Protocol: as §1, §2
# SK-MEL-5 = assay: NCI one-dose SRB assay (Melanoma); settings: for inhibition at 10 µM: Homo sapiens, SK-MEL-5, 10 μM, read-out: Percentage growth inhibition (GI%); for Growth Percent: SK-MEL-5, 1.00E-5 Molar
# Protocol: as §1, §2
# M14 = assay: NCI one-dose SRB assay (Melanoma); settings: for inhibition at 10 µM: Homo sapiens, M14, 10 μM, read-out: Percentage growth inhibition (GI%); for Growth Percent: M14, 1.00E-5 Molar
# Protocol: as §1, §2
# LOX IMVI = assay: NCI one-dose SRB assay (Melanoma); settings: for Growth Percent: 1.00E-5 Molar; for inhibition at 10 µM: Homo sapiens, read-out: Percentage growth inhibition (GI%)
# Protocol: as §1, §2
# UACC-62 = assay: NCI one-dose SRB assay (Melanoma); settings: for inhibition at 10 µM: Homo sapiens, UACC-62, 10 μM, read-out: Percentage growth inhibition (GI%); for Growth Percent: UACC-62, 1.00E-5 Molar
# Protocol: as §1, §2
# MALME-3M = assay: NCI one-dose SRB assay (Melanoma); settings: for Growth Percent: 1.00E-5 Molar; for inhibition at 10 µM: Homo sapiens, read-out: Percentage growth inhibition (GI%)
# Protocol: as §1, §2
# SK-MEL-28 = assay: NCI one-dose SRB assay (Melanoma); settings: for inhibition at 10 µM: Homo sapiens, SK-MEL-28, 10 μM, read-out: Percentage growth inhibition (GI%); for Growth Percent: SK-MEL-28, 1.00E-5 Molar
# Protocol: as §1, §2
# HCT-116 = assay: NCI one-dose SRB assay (Colon Cancer); settings: for Growth Percent: HCT-116, 1.00E-5 Molar; for inhibition at 10 µM: Homo sapiens, HCT-116, 10 μM, read-out: Percentage growth inhibition (GI%)
# Protocol: as §1, §2
# COLO 205 = assay: NCI one-dose SRB assay (Colon Cancer); settings: for Growth Percent: COLO 205, 1.00E-5 Molar; for inhibition at 10 µM: Homo sapiens, COLO 205, 10 μM, read-out: Percentage growth inhibition (GI%)
# Protocol: as §1, §2
# HT29 = assay: NCI one-dose SRB assay (Colon Cancer); settings: for Growth Percent: HT29, 1.00E-5 Molar; for inhibition at 10 µM: Homo sapiens, HT-29, HT29, 10 μM, read-out: Percentage growth inhibition (GI%)
# Protocol: as §1, §2
# HCT-15 = assay: NCI one-dose SRB assay (Colon Cancer); settings: for Growth Percent: HCT-15, 1.00E-5 Molar; for inhibition at 10 µM: Homo sapiens, HCT-15, 10 μM, read-out: Percentage growth inhibition (GI%)
# Protocol: as §1, §2
# KM12 = assay: NCI one-dose SRB assay (Colon Cancer); settings: for inhibition at 10 µM: Homo sapiens, KM12, 10 μM, read-out: Percentage growth inhibition (GI%); for Growth Percent: KM12, 1.00E-5 Molar
# Protocol: as §1, §2
# SW-620 = assay: NCI one-dose SRB assay (Colon Cancer); settings: for inhibition at 10 µM: Homo sapiens, SW-620, 10 μM, read-out: Percentage growth inhibition (GI%); for Growth Percent: SW-620, 1.00E-5 Molar
# Protocol: as §1, §2
# HCC-2998 = assay: NCI one-dose SRB assay (Colon Cancer); settings: for Growth Percent: HCC-2998, 1.00E-5 Molar; for inhibition at 10 µM: Homo sapiens, HCC-2998, 10 μM, read-out: Percentage growth inhibition (GI%)
# Protocol: as §1, §2
# [2] = MCF7, 48 h, 48 h of incubation, read-out: IC50 48 h
# [3] = MCF7, 72 h, 72 h of incubation, read-out: IC50 72 h
compound,measurement,setting,value
"COc1ccc(-c2ccc(NC(=O)Nc3cccc(C(F)(F)F)c3)c(C)n2)cc1 [Compound 8b, 1-(6-(4-Methoxyphenyl)-2-methylpyridin-3-yl)-3-(3-(trifluoromethyl)phenyl) Urea]",IC50,[1]; [2],5.66 ± 0.45 µM
same,IC50,[1]; [3],5.03 ± 0.29 µM
same,Growth Percent,SN12C,67.99%
same,inhibition at 10 µM,SN12C,33%
same,Growth Percent,786-0,77.34%
same,inhibition at 10 µM,786-0,23%
same,Growth Percent,A498,52.08%
same,inhibition at 10 µM,A498,48%
same,inhibition at 10 µM,TK-10,24%
same,Growth Percent,TK-10,76.66%
same,inhibition at 10 µM,UO-31,45%
same,Growth Percent,UO-31,55.08%
same,inhibition at 10 µM,RXF 393,15%
same,Growth Percent,RXF 393,85.91%
same,inhibition at 10 µM,SK-MEL-2,25%
same,Growth Percent,SK-MEL-2,75.95%
same,inhibition at 10 µM,UACC-257,39%
same,Growth Percent,UACC-257,61.43%
same,inhibition at 10 µM,MDA-MB-435,31%
same,Growth Percent,MDA-MB-435,69.59%
same,inhibition at 10 µM,SK-MEL-5,59%
same,Growth Percent,SK-MEL-5,41.63%
same,inhibition at 10 µM,M14,63%
same,Growth Percent,M14,37.25%
same,Growth Percent,LOX IMVI,47.72%
same,inhibition at 10 µM,LOX IMVI,53%
same,inhibition at 10 µM,UACC-62,37%
same,Growth Percent,UACC-62,63.91%
same,Growth Percent,MALME-3M,90.58%
same,inhibition at 10 µM,MALME-3M,10%
same,inhibition at 10 µM,SK-MEL-28,31%
same,Growth Percent,SK-MEL-28,69.29%
same,Growth Percent,HCT-116,26.93%
same,inhibition at 10 µM,HCT-116,74%
same,Growth Percent,COLO 205,84.52%
same,inhibition at 10 µM,COLO 205,16%
same,Growth Percent,HT29,47.65%
same,inhibition at 10 µM,HT29,53%
same,Growth Percent,HCT-15,40.87%
same,inhibition at 10 µM,HCT-15,60%
same,inhibition at 10 µM,KM12,55%
same,Growth Percent,KM12,45.61%
same,inhibition at 10 µM,SW-620,19%
same,Growth Percent,SW-620,81.01%
same,Growth Percent,HCC-2998,81.09%
same,inhibition at 10 µM,HCC-2998,19%
"COc1ccc(-c2ccc(NC(=O)Nc3ccc(Cl)cc3)c(C)n2)cc1 [Compound 8d, 1-(4-Chlorophenyl)-3-(6-(4-methoxyphenyl)-2-methylpyridin-3-yl) Urea]",IC50,[1]; [2],7.1 ± 0.38 µM
same,IC50,[1]; [3],5.14 ± 0.46 µM
same,Growth Percent,SN12C,98.33%
same,inhibition at 10 µM,SN12C,< 10%
same,Growth Percent,786-0,90.10%
same,inhibition at 10 µM,786-0,10%
same,Growth Percent,A498,79.24%
same,inhibition at 10 µM,A498,21%
same,inhibition at 10 µM,TK-10,< 10%
same,Growth Percent,TK-10,102.41%
same,inhibition at 10 µM,UO-31,11%
same,Growth Percent,UO-31,89.14%
same,inhibition at 10 µM,RXF 393,< 10%
same,Growth Percent,RXF 393,98.51%
same,inhibition at 10 µM,SK-MEL-2,< 10%
same,Growth Percent,SK-MEL-2,104.03%
same,inhibition at 10 µM,UACC-257,22%
same,Growth Percent,UACC-257,78.79%
same,inhibition at 10 µM,MDA-MB-435,12%
same,Growth Percent,MDA-MB-435,88.00%
same,inhibition at 10 µM,SK-MEL-5,13%
same,Growth Percent,SK-MEL-5,87.05%
same,inhibition at 10 µM,M14,14%
same,Growth Percent,M14,86.55%
same,Growth Percent,LOX IMVI,85.30%
same,inhibition at 10 µM,LOX IMVI,15%
same,inhibition at 10 µM,UACC-62,29%
same,Growth Percent,UACC-62,71.19%
same,Growth Percent,MALME-3M,104.47%
same,inhibition at 10 µM,MALME-3M,< 10%
same,inhibition at 10 µM,SK-MEL-28,11%
same,Growth Percent,SK-MEL-28,89.84%
same,Growth Percent,HCT-116,76.10%
same,inhibition at 10 µM,HCT-116,24%
same,Growth Percent,COLO 205,102.39%
same,inhibition at 10 µM,COLO 205,< 10%
same,Growth Percent,HT29,85.13%
same,inhibition at 10 µM,HT29,15%
same,Growth Percent,HCT-15,85.74%
same,inhibition at 10 µM,HCT-15,15%
same,inhibition at 10 µM,KM12,< 10%
same,Growth Percent,KM12,93.09%
same,inhibition at 10 µM,SW-620,23%
same,Growth Percent,SW-620,77.06%
same,Growth Percent,HCC-2998,104.24%
same,inhibition at 10 µM,HCC-2998,< 10%
